The test system of one data set is monkey eye. The conditions noted are these: perfused monkey eye, 15 mm Hg, 22° C.; cited from earlier work.
A further data set relates to calf eye. The conditions noted are these: perfused calf eye, 15 mm Hg, 22° C.; cited from earlier work.
The subject of data set [1] is intraocular pressure. As to the kind of experiment: Intraocular pressure after topical instillation in rabbits (Digilab Pneumotonometer). It counts as in vivo, Dutch-belted rabbits. The conditions noted are these: 10 mM and 3% methylcellulose, twenty four hours after instillation, fourteen rabbits, changed from 23.0, p less than 0.001, control eye 22.9 to 24.2. How it is done:
For rabbit experiments Dutch-belted rabbits of either sex weighing 1.5 to 2 kg were used for topical studies. Each animal was randomly assigned one eye for the experimental and the other for its control solution. Intraocular pressure was measured using a Digilab Pneumotonometer. Any animals showing asymmetry of intraocular pressure greater than 2 mm were excluded form the study.
The protocol was as follows. Baseline intraocular pressure was taken in each eye using 0.5% proparacaine hydrochloride for topical anesthesia. Then a 100 microliter drop of either control solution or ethacrynic acid dissolved in 3% methylcellulose was instilled into one of the two eyes. In a half hour this was repeated. Two hours later intraocular pressure was measured in each eye. In some animals intraocular pressure was also measured five hours later and all animals had measurement of intraocular pressure the following day.
Ethcrynic acid powder was dissolved in 3% methylcellulose to yield the desired concentration. The solution was mixed at room temperature for one hour and was stable for twenty four hours. A similar osmotically balanced control solution was prepared. […] The pH of the solution was determined by mixing one part of the control or experimental solution with five parts of distilled water. […]

Data set [2] is classed as physicochemical. On the procedure: (§1) Each vial of ethacrynic acid contained ethacrynate sodium powder equivalent to 50 mg of ethacrynic acid. […] The powder was diluted with the above basic medium (Dulbecco's with added glucose) to yield the desired concentration. The solution was mixed at room temperature until dissolved, and the pH was determined (always 7.2) before use; the solution was filtered with a 0.2 micron filter (Nuclepore); this produced a solution which was stable for twenty four hours.
Ethcrynic acid powder was dissolved in 3% methylcellulose to yield the desired concentration. The solution was mixed at room temperature for one hour and was stable for twenty four hours. A similar osmotically balanced control solution was prepared. 3% methylcellulose was prepared as follows: methylcellulose powder (4000 CPS) was obtained from Dow company (lot number 14728). A 3% solution was prepared from powder dissolved in distilled water using low heat for several hours. The solution was refrigerated over night to yield a transparent, viscous fluid. The pH of the solution was determined by mixing one part of the control or experimental solution with five parts of distilled water. The pH ranged between 6.2 and 6.5 for both the control and experimental solutions. The 3% methylcellulose solution was refrigerated when not in use.

In data set [3] the test system is eye. As to the kind of experiment: Ocular changes and side effects after anterior chamber perfusion in monkeys. It counts as in vivo, cynomologous monkeys.
From the text: (§2) Ethacrynic acid (sodium salt) was used to increase aqueous humor outflow in cynomologous monkeys, as described below. Ethacrynic acid can be purchased from Merck, Sharp, and Dome, and is described in U.S. Pat. No. 3,255,241, hereby incorporated by reference. Ethacrynic acid has the chemical formula [2,3-dichloro-4-(2-methylene-1-oxobutyl) phenoxy] acetic acid. Any suitable analogs described in U.S. Pat. No. 3,255,241 can also be used as described herein.
(§3) Each animal was randomly assigned one eye for the experimental and the other for its control perfusion. The animals were fasted the night before the experiment. They were anesthetized intramusclarly with Methohexital Sodium 15 mg/kg and Pentobarbital Sodium 35 mg/kg. Supplemental anesthesia as required was carried out with Pentobarbital 10 mg/kg/hour. Needles were placed through the cornea into the anterior chamber and a two-step constant pressure perfusion method was performed in order to determine aqueous humor outflow facility. The basic medium for perfusion was Dulbecco's phosphate buffered saline with added 5.5 mM glucose. A 10 microliter bolus of the experimental or control solution (that would produce the desired final concentration in the anterior chamber) was injected through a T shaped connector piece in the infusion line.
as §1
During perfusion experiments, a 10 microliter bolus injection was made using a Hamilton syringe. Since the monkey anterior chamber is approximately 200 microliters, our calculations were as follows. To achieve a final concentration of 0.5 mM ethacrynic acid, 10 microliters of 10 mM ethacrynic acid was infused.
Experiments were carried out using final ethacrynic acid concentrations in the aqueous humor of 0.1 mM to 0.5 mM. There were at least three animals and separate experiments carried out for each of the concentrations […], 0.25 mM, and […].

Data set [4] concerns eye. Put plainly: Ocular side effects after topical instillation in rabbits. In kind it is in vivo, Dutch-belted rabbits.
The test system of data set [5] is intraocular pressure. As to the kind of experiment: Intraocular pressure in monkeys a few days after perfusion. It counts as in vivo, cynomologous monkeys. The conditions noted are these: both eyes. How it is done:
as §3

For another data set, the system named is aqueous humor outflow. As to the kind of experiment: Two-step constant pressure perfusion, aqueous humor outflow facility in monkeys. In kind it is in vivo, cynomologous monkeys.
From the text: as §2
Each animal was randomly assigned one eye for the experimental and the other for its control perfusion. The animals were fasted the night before the experiment. They were anesthetized intramusclarly with Methohexital Sodium 15 mg/kg and Pentobarbital Sodium 35 mg/kg. Supplemental anesthesia as required was carried out with Pentobarbital 10 mg/kg/hour. Needles were placed through the cornea into the anterior chamber and a two-step constant pressure perfusion method was performed in order to determine aqueous humor outflow facility. […]
Each vial of ethacrynic acid contained ethacrynate sodium powder equivalent to 50 mg of ethacrynic acid. […] The solution was mixed at room temperature until dissolved, and the pH was determined (always 7.2) before use; the solution was filtered with a 0.2 micron filter (Nuclepore); this produced a solution which was stable for twenty four hours. […]

A short description of another data set: Water solubility. In kind it is physicochemical. The following applies: volume not given.

Structures can show the parent of a compound that is named as a salt. Where two headings read alike, the source gives them in different places.

In the case of `CCN1C(=O)C=CC1=O` [NEM, N-ethylmaleimide], the “effect on outflow in the monkey eye” value in the data set with monkey eye is “increase in outflow”. Also, the “dosage producing a significant increase in the facility of outflow” value in the data set with calf eye was not below 4.7 mM.
Regarding `C=C(CC)C(=O)c1ccc(OCC(=O)O)c(Cl)c1Cl` [ethacrynic acid, [2,3-dichloro-4-(2-methylene-1-oxobutyl)phenoxy] acetic acid], in the data set with intraocular pressure [1], the “intraocular pressure in treated eye, 24 h” value came out at 20.0 mmHg. Further, the stability of solution entry in data set [2] and in data set [2] (pH 7.2) was “twenty four” in each case. Also, the “pupil dilation in treated eye” value with eye [3] (dosages above 0.25 mM) was “some of the animals developed a dilated pupil”. In the data set with eye [3] (experimental and control eyes, believed to result from perfusion technique), the “adhesions of the iris to the peripheral cornea” value was “A small number of animals in both the experimental and control eyes developed adhesions of the iris to the peripheral cornea”. Also, the “chronic corneal edema, opacities or cataract formation” value in the data set with eye [3] (monkey perfusion) is “no chronic corneal edema or opacities or cataract formation”. Besides, the “corneal or crystalline lens changes” value in the data set with eye [3] (monkey perfusion) is “no apparent corneal or crystalline lens changes”. Further, the conjunctival injection entry with eye [4] (5 mM, topical) is “slight conjunctival injection”. The “conjunctival injection and irritation” value with eye [4] (10 mM, topical) is “moderate conjunctival injection and signs of irritation”. In addition, the “reversibility of corneal toxicity and inflammation” value in the data set on eye [4] (higher concentrations (above 10 mM)) is reported as “resolved without apparent seguelae”. In the data set with eye [4] (higher concentrations (above 10 mM), for several days), the “corneal toxicity and anterior chamber inflammation” value was “signs of corneal toxicity (corneal edema) and anterior chamber inflammation”. Moreover, the intraocular pressure result in the data set with intraocular pressure [5] is “symmetrical and normal in both eyes”. For the same compound, the outflow facility response entry in the data set with aqueous humor outflow (0.25 mM final concentration) is on record as “approximately half the animals perfused responded with a substantial increase in outflow facility”. Further, in the data set with aqueous humor outflow (lower dosages (below 0.25 mM; 0.1 mM tested)), the outflow facility effect entry is reported as “no effect”.
On to `C=C(CC)C(=O)c1ccc(OCC(=O)O)c(Cl)c1Cl` [sodium salt of ethacrynic acid], for which the solubility in water result in the data set “Water solubility” is given as “about 0.04 g”.

Values taken from patent US4757089A, “Increasing aqueous humor outflow” (Massachusetts Eye and Ear Infirmary, priority 1986, dated 1988).
